Where two headings read alike, the source gives them in different places.
Columns and labels:
[1] = test system: patients with steroid-induced osteoporosis; assay: Stimulation of bone formation in humans with steroid-induced osteoporosis; type: in vivo, human; conditions: oral 0.1 to 100 mg/kg/day, one month to one year, vs placebo
[2] = test system: HSV-1; assay: HSV-1 antiviral assay, HSV DNA quantified by nucleic acid hybridization in MRC-5 cells; type: cell-based; conditions: CC50/EC50 (Table 7)
[3] = test system: Human cytomegalovirus (HCMV); assay: HCMV antiviral assay, HCMV DNA quantified by DNA hybridization in MRC-5 cells; type: cell-based; conditions: for Selectivity Index: CC50/EC50, Human CMV in MRC-5 (Table 2)
[4] = test system: postmenopausal women; conditions: oral 0.1 to 100 mg/kg/day, two to three years, vs placebo
[5] = test system: HIV-1; conditions: Human immunodeficiency virus 1, 72 h, read-out: EC50, in HIV-1 plaque reduction assay
[6] = Cytotoxicity in CEM cells (CC50); type: cell-based; conditions: human; CEM cells (Table 1)
[7] = Cytotoxicity of test compounds in vitro, visual estimate of 50% reduction in cell number; conditions: human, MRC-5 human lung fibroblast cells
[8] = test system: MRC-5 human lung fibroblast cells; assay: as above; conditions: MRC-5 cells
[9] = in vitro; conditions: African green monkey
[10] = in vitro; conditions: human
[11] = test system: Calvarial cells; assay: Dexamethasone-induced apoptosis in calvarial cells, trypan blue; type: cell-based, mice; conditions: pretreatment at 10^−8 or greater for 1 hour, then 6 hours 10^−4 dexamethasone
[12] = test system: MLO-Y4 osteocytic cells; conditions: at 10^−8 to 10^−5 M; 1 hour pretreatment, then 6 hours 10^−4 M dexamethasone
[13] = test system: ovariectomized rats; conditions: subcutaneous 0 to 8 mg/kg/day, four to twelve weeks, vs ovariectomized controls
[14] = test system: HT4-6C cells; assay: Cytotoxicity by the method of Hostetler et al. (HIV study); conditions: Table 6

1-O-octadecyloxypropyl-amino-olpadronate
bone density [1]: bone density is increased
fractures [1]: fractures are decreased

CCCCCCCCCCCCCCCCCCOCCOP(=O)(O)COC(CO)Cn1ccc(N)nc1=O (stereo not drawn) [1-O-octadecylethanediol-2-CDV]
Selectivity Index [2]: 105,000

CCCCCCCCCCCCCCCCCCOCCOP1(=O)COC(Cn2ccc(N)nc2=O)CO1 (stereo not drawn) [1-O-octadecylethanediol-2-cCDV]
Selectivity Index [2]: 40,000
Selectivity Index [3]: 1 × 10^6

CCCCCCCCCCCCCCCCCCOCCCOP(=O)(O)C(O)(CCCN)P(=O)(O)O (stereo not drawn) [1-O-octadecyloxypropyl alendronate, 1-O-octadecyloxypropyl-alendronate]
fractures [4]: fewer fractures
rate of reduction in bone density [4]: lesser rate of reduction in bone density than the placebo group

CCCCCCCCCCCCCCCCCCOCCCOP(=O)(O)CO[C@H](CO)Cn1ccc(N)nc1=O [1-O-octadecylpropanediol-3-CDV]
Selectivity Index [3]: 1 × 10^6

CCCCCCCCCCCCCCCCCCOCCCOP1(=O)COC(Cn2ccc(N)nc2=O)CO1 (stereo not drawn) [1-O-octadecylpropanediol-3-cCDV]
Selectivity Index [2]: 970
Selectivity Index [3]: 1 × 10^6

Cc1cn([C@H]2C[C@H](N=[N+]=[N-])[C@@H](CO)O2)c(=O)[nH]c1=O [AZT, zidovudine]
EC50 [5]: 0.007 µM

Nc1ccn(C[C@@H](CO)OCP(=O)(O)O)c(=O)n1 [CDV, cidofovir]
CC50 [6]: 857 µM
CC50 at 5 days [7]: > 1000 µM
CC50 ([8]; as in Example 17 (Table 7)): > 1000 µM
CC50 [9]: > 100 µM
CC50 [10]: 89.8 µM

CCCCCCCCCCCCCCCCOCCCOP(=O)(O)CO[C@H](CO)Cn1ccc(N)nc1=O [HDP-CDV]
Selectivity Index [3]: 5 × 10^6

CCCCCCCCCCCCCCCCOCCCOP(=O)(O)C(O)(CCCN)P(=O)(O)O (stereo not drawn) [HDP-alendronate, 1-O-Hexadececylpropanediol-3-alendronate]
effect on dexamethasone-induced increase in % dead cells [11]: abolished the dexamethasone-induced increase in % dead cells
effect on dexamethasone-induced apoptosis (percentage of dead cells) [12]: inhibits dexamethasone-induced apoptosis
bone mass loss (ash weight of the femora) [13]: less bone mass loss than the ovariectomized controls

CCCCCCCCCCCCCCCCOP1(=O)COC(Cn2ccc(N)nc2=O)CO1 (stereo not drawn) [Hexadecyl-cCDV, hexadecyl-cCDV]
Selectivity Index [3]: 163

Nc1ccn(C[C@H]2COP(=O)(O)CO2)c(=O)n1 [cCDV, cyclic cidofovir]
CC50 [6]: > 1000 µM
CC50 at 5 days [7]: > 1000 µM
CC50 ([8]; as in Example 17 (Table 7)): > 1000 µM
CC50 [9]: > 100 µM
CC50 [10]: > 100 µM

hexadecyloxypropyl-adefovir [HDP-ADV]
CC50 [14]: 6.5 µM
CC50 ([8]; 5 days (Table 2)): 6.5 µM
EC50 ([3]; Human CMV replication in MRC-5 human lung fibroblasts, DNA reduction (Table 2), read-out: EC50): 0.1 µM
EC50 ([3]; preliminary experiments (Table 1), MRC-5 cells, 5 days, read-out: HCMV EC50): 0.01 µM

Reference: patent US10071110B2, “Phosphonate compounds” (priority 1999, dated 2018)
